Laboratory results from patent publication EP3521435A1, “A HIGH STRINGENCY SELECTION SYSTEM FOR PROTEIN EXPRESSION IN PROLINE-AUXOTROPHIC CELLS” (Bayer AG, priority 2018, dated 2019).

Test system: CHO-K1 cells
Assay: Batch fermentation in shake flasks of human IgG1 expressing stable cell populations (Poros A-HPLC titer, viable cell density, viability)
Type: cell-based, Chinese hamster
Details: for Productivity profile / Batch titer day 7: human IgG1
Method: To efficiently test the impact of different procedures on improving selection stringency, experimental testing in stable cell populations was performed. As test molecules, enhanced green fluorescent protein (GFP) as well as a human IgG1 were chosen. CHO-K1 cells adapted to growth in suspension in defined medium were obtained from SAFC and cultivated in EX-CELL CD CHO Fusion medium (SAFC 14365C). Custom-made EX-CELL CD CHO Fusion medium without L-Proline (Pro) and without L-Ornithine (Orn) ("proline-free medium") was obtained from SAFC. The expression vector system was based on modified versions of "CET 1019 AS-puro-SceI" and "CET 1019 AD-puro-SceI" for GFP and human IgG1, respectively, from Merck-Millipore, containing the Puromycin selection marker (Puromycin N-acetyl-transferase) known to exert a high selection stringency. To minimize variations in cell populations derived from using different transfections or different vectors, the first series of experiments were conducted using vectors into which a P5CS expression cassette was cloned upstream of a UCOE element, in addition to the Puromycin selection marker present downstream of a gene of interest. This way, it was possible to pool different transfections using the same vector to obtain a common starting point, and split the mixture according to different selection conditions, minimizing any variations that are not due to selection conditions themselves. Expression of long and short isoform of murine P5CS (Protein: Delta-1-pyrroline-5-carboxylate synthase; Gene: Aldh18a1; UniProtKB accession number: Q9Z110-1 & Q9Z110-2) was driven by a SV40 promoter. A SV40 polyadenylation sequence was used at the 3' end of the gene. More details can be found in Table 1. Typically, CHO cells were cultivated in EX-CELL CD CHO Fusion medium containing 6 mM GlutaMAX (Thermo Fisher, 35050-38) ("CD-Fusion medium") at 37 °C with 5% CO2. Cells were grown to logarithmic phase under shaking conditions for transfections. 1e7 cells/cuvette were transfected using nucleofection (Amaxa Nucleofector II, following the manufacturer's recommendations) with 5 µg of linearized DNA. After transfection, cells were taken up in 1 ml medium and transferred into 1 well of a 6 well microtiter plate (MTP) already containing 1 ml medium. The cells were incubated for 24 h without shaking, after which 9 ml medium were added and cells were washed (either in standard or proline-free medium). Multiple transfections were pooled, if applicable. Cells were adjusted to 2e5 viable cells/ml and 10 ml were transferred to T-25 flasks. Reference cell populations were selected using 10 µg/ml Puromycin in CD-Fusion medium. For P5CS-based selection, EX-CELL CD CHO Fusion medium (custom-made, SAFC) containing 6 mM GlutaMAX without proline and without ornithine was used ("proline-free" or "CD-Fusion w/o Pro" medium), with or without additional selection pressure.
Cell viability of the different populations was monitored over time. As soon as cell populations appeared to recover from selection pressure, cells were transferred to Shake Flask or TubeSpins for expansion in suspension under shaking conditions. Subsequently, stable cell populations transfected with IgG were seeded at 2e5 viable cells/ml for batch fermentation without selection pressure (i.e. standard CD-Fusion medium containing proline and no other selective agents). The cells were cultivated for 5-10 days, viable cell densities and productivity were monitored over time. IgG titers were determined using Poros A-HPLC method. Typically, final batch titers were recorded at a time point at which majority of cultures had around 70% viability. Stable cell populations transfected with GFP vector were subjected to analysis by flow cytometry using Guava easyCyte 8HT Benchtop Flow Cytometer (Millipore). 250 µl of cell culture were transferred to 96 MTP and washed with PBS. Dead cells were excluded from analysis using propidium iodide (PI). […]

[1] = Day 2 after inoculation, pJF1576, selected in CD Fusion + 10 µg/ml Puromycin, non-selecting conditions
[2] = Day 2 after inoculation, pJF1576, selected in CD-Fusion w/o Pro + 0.25 mM Pro + 10 µg/ml Puromycin, non-selecting conditions
[3] = Day 3 after inoculation, pJF1576, selected in CD Fusion + 10 µg/ml Puromycin, selective conditions
[4] = Day 4 after inoculation, pJF1576, selected in CD Fusion + 10 µg/ml Puromycin, non-selecting conditions
[5] = Day 4 after inoculation, pJF1576, selected in CD-Fusion w/o Pro + 0.25 mM Pro + 10 µg/ml Puromycin, non-selecting conditions
[6] = Day 5 after inoculation, pJF1576, selected in CD Fusion + 10 µg/ml Puromycin, selective conditions
[7] = Day 7 after inoculation, pJF1576, selected in CD Fusion + 10 µg/ml Puromycin, non-selecting conditions
[8] = Day 7 after inoculation, pJF1576, selected in CD Fusion + 10 µg/ml Puromycin, selective conditions
[9] = Day 7 after inoculation, pJF1576, selected in CD-Fusion w/o Pro + 0.25 mM Pro + 10 µg/ml Puromycin, non-selecting conditions
[10] = Day 9 after inoculation, pJF1576, selected in CD Fusion + 10 µg/ml Puromycin, non-selecting conditions
[11] = Day 9 after inoculation, pJF1576, selected in CD-Fusion w/o Pro + 0.25 mM Pro + 10 µg/ml Puromycin, non-selecting conditions

SMILES: COc1ccc(C[C@H](N)C(=O)N[C@H]2[C@@H](O)[C@H](n3cnc4c(N(C)C)ncnc43)O[C@@H]2CO)cc1 [Puromycin]
- Viability profile (Day 0 after inoculation, pJF1576, selected in CD Fusion + 10 µg/ml Puromycin, non-selecting conditions): 98.7%
- Viability profile (Day 0 after inoculation, pJF1576, selected in CD Fusion + 10 µg/ml Puromycin, selective conditions): 92.8%
- Viability profile (Day 0 after inoculation, pJF1576, selected in CD-Fusion w/o Pro + 0.25 mM Pro + 10 µg/ml Puromycin, non-selecting conditions): 99.0%
- Productivity profile [1]: 6.9 mg/L
- Productivity profile (Day 2 after inoculation, pJF1576, selected in CD Fusion + 10 µg/ml Puromycin, selective conditions): 10.9 mg/L
- Productivity profile [2]: 11.2 mg/L
- Viability profile [1]: 99.0%
- Viable cell density profile [1]: 7,7E+05 VCD/ml
- Viability profile [2]: 99.1%
- Viable cell density profile [2]: 8,3E+05 VCD/ml
- Viability profile [3]: 98.4%
- Viable cell density profile [3]: 1.7E+06 VCD/ml
- Productivity profile [4]: 15.1 mg/L
- Productivity profile (Day 4 after inoculation, pJF1576, selected in CD Fusion + 10 µg/ml Puromycin, selective conditions): 27.6 mg/L
- Productivity profile [5]: 24.1 mg/L
- Viability profile [4]: 99.7%
- Viable cell density profile [4]: 6,2E+06 VCD/ml
- Viability profile [5]: 99.8%
- Viable cell density profile [5]: 5,4E+06 VCD/ml
- Viability profile [6]: 99.1%
- Viable cell density profile [6]: 7.1E+06 VCD/ml
- Productivity profile [7]: 43.3 mg/L
- Productivity profile [8]: 60.5 mg/L
- Productivity profile [9]: 60.6 mg/L
- Viability profile [7]: 98.7%
- Viable cell density profile [7]: 1,2E+07 VCD/ml
- Viability profile [8]: 97.7%
- Viable cell density profile [8]: 1.1E+07 VCD/ml
- Viability profile [9]: 97.8%
- Viable cell density profile [9]: 1,0E+07 VCD/ml
- Productivity profile [10]: 61.5 mg/L
- Productivity profile [11]: 92.5 mg/L
- Viability profile [10]: 43.9%
- Viable cell density profile [10]: 5,8E+06 VCD/ml
- Viability profile [11]: 58.1%
- Viable cell density profile [11]: 6,2E+06 VCD/ml
- Batch titer day 7 (pJF1576, selected in CD Fusion + 10 µg/ml Puromycin, non-selecting conditions): 145 mg/L
- Batch titer day 7 (pJF1576, selected in CD-Fusion w/o Pro + 10 µg/ml Puromycin, non-selecting conditions): 198 mg/L
- Batch titer day 7 (pJF1576, selected in CD-Fusion w/o Pro + 0.25 mM Pro + 10 µg/ml Puromycin, non-selecting conditions): 164 mg/L
- Batch titer day 7 (pJF1577, selected in CD Fusion + 10 µg/ml Puromycin, non-selecting conditions): 174 mg/L
- Batch titer day 7 (pJF1577, selected in CD-Fusion w/o Pro + 10 µg/ml Puromycin, non-selecting conditions): 154 mg/L
- Batch titer day 7 (pJF1577, selected in CD-Fusion w/o Pro + 0.25 mM Pro + 10 µg/ml Puromycin, non-selecting conditions): 127 mg/L
